# Source: patent US20100267561A1, “HERBICIDAL PYRIDAZINONE DERIVATIVES” (priority 2007, published 2010)
# How the values were obtained:
# Type in all cases: in vivo
# [1] = system: winter barley (Hordeum vulgare); assay: Test C pre-/postemergence plant response
# Summary of the method: (§1)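 Visual rating vs untreated controls, 0 (no effect) to 100 (complete control), after 15–25 days in a controlled growth environment. Pre- and postemergence treatments; post plants at 1- to 4-leaf stage, 2–18 cm. Formulation: non-phytotoxic solvent mix plus surfactant.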
# [2] = system: spring wheat (Triticum aestivum); assay: Test C pre-/postemergence plant response
# Summary of the method: as §1
# [3] = system: windgrass (Apera spica-venti); assay: Test C pre-/postemergence plant response
# Summary of the method: as §1
# [4] = system: canarygrass (Phalaris minor); assay: Test C pre-/postemergence plant response
# Summary of the method: as §1
# [5] = system: downy bromegrass (Bromus tectorum); assay: Test C pre-/postemergence plant response
# Summary of the method: as §1
# [6] = system: Italian ryegrass (Lolium multiflorum); assay: Test C pre-/postemergence plant response
# Summary of the method: as §1
# [7] = system: winter wheat (Triticum aestivum); assay: Test C pre-/postemergence plant response
# Summary of the method: as §1
# [8] = system: annual bluegrass (Poa annua); assay: Test C pre-/postemergence plant response
# Summary of the method: as §1
# [9] = system: wild mustard (Sinapis arvensis); assay: Test C pre-/postemergence plant response
# Summary of the method: as §1
# [10] = system: spring barley (Hordeum vulgare); assay: Test C pre-/postemergence plant response
# Summary of the method: as §1
# [11] = system: blackgrass (Alopecurus myosuroides); assay: Test C pre-/postemergence plant response
# Summary of the method: as §1
# [12] = system: green foxtail (Setaria viridis); assay: Test C pre-/postemergence plant response
# Summary of the method: as §1
# [13] = system: wild oat (Avena fatua); assay: Test C pre-/postemergence plant response
# Summary of the method: as §1
# [14] = system: pigweed (Amaranthus retroflexus); assay: Test C pre-/postemergence plant response
# Summary of the method: as §1
# [15] = system: ducksalad (Heteranthera limosa); assay: Test B flooded paddy test plant response; conditions: Heteranthera limosa, read-out: Plant response rating, Ducksalad
# Summary of the method: (§2)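 2-leaf plants; pots flooded 3 cm above soil; compound added to paddy water; depth maintained. Greenhouse 13–15 d. Visual rating vs controls, 0 (no effect) to 100 (complete control); dash = no result.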
# [16] = system: rice (Oryza sativa); assay: Test B flooded paddy test plant response; conditions: Oryza sativa, read-out: Plant response rating, Rice
# Summary of the method: as §2
# [17] = system: umbrella sedge (Cyperus difformis); assay: Test B flooded paddy test plant response; conditions: Cyperus difformis, read-out: Plant response rating, Sedge, Umbrella
# Summary of the method: as §2
# [18] = Postemergence, 8 g ai/ha, scale 0 to 100, 0 no effect, 100 complete control
# [19] = Postemergence, 16 g ai/ha, scale 0 to 100, 0 no effect, 100 complete control
# [20] = Postemergence, 31 g ai/ha, scale 0 to 100, 0 no effect, 100 complete control
# [21] = Postemergence, 62 g ai/ha, scale 0 to 100, 0 no effect, 100 complete control
# [22] = Preemergence, 8 g ai/ha, scale 0 to 100 (0 no effect, 100 complete control)
# [23] = Preemergence, 16 g ai/ha, scale 0 to 100 (0 no effect, 100 complete control)
# [24] = Preemergence, 31 g ai/ha, scale 0 to 100 (0 no effect, 100 complete control)
# [25] = Preemergence, 62 g ai/ha, scale 0 to 100, 0 no effect, 100 complete control
# [26] = Flood (flooded paddy test), 62 g ai/ha, scale 0 to 100, 0 no effect, 100 complete control
# [27] = Flood (flooded paddy test), 125 g ai/ha, scale 0 to 100, 0 no effect, 100 complete control
# [28] = Flood (flooded paddy test), 250 g ai/ha, scale 0 to 100, 0 no effect, 100 complete control
# [29] = Flood, 31 g ai/ha, scale 0 to 100
smiles,measurement,setting,value
"CCc1cc(-c2ccc(C(F)(F)F)cc2)nn1-c1c(O)cnn(C)c1=O [Compound 11, 4-[5-ethyl-3-[4-(trifluoromethyl)phenyl]-1H-pyrazol-1-yl]-5-hydroxy-2-methyl-3(2H)-pyridazinone]","Plant response rating, Barley, Winter",[1]; [18],60
same,"Plant response rating, Barley, Winter",[1]; [19],70
same,"Plant response rating, Barley, Winter",[1]; [20],95
same,"Plant response rating, Barley, Winter",[1]; [21],100
same,"Plant response rating, Barley, Winter",[1]; [22],20
same,"Plant response rating, Barley, Winter",[1]; [23],40
same,"Plant response rating, Barley, Winter",[1]; [24],75
same,"Plant response rating, Barley, Winter",[1]; [25],95
same,"Plant response rating, Wheat, Spring",[2]; [18],65
same,"Plant response rating, Wheat, Spring",[2]; [19],90
same,"Plant response rating, Wheat, Spring",[2]; [20],98
same,"Plant response rating, Wheat, Spring",[2]; [21],98
same,"Plant response rating, Wheat, Spring",[2]; [22],50
same,"Plant response rating, Wheat, Spring",[2]; [23],60
same,"Plant response rating, Wheat, Spring",[2]; [24],75
same,"Plant response rating, Wheat, Spring",[2]; [25],100
same,"Plant response rating, Windgrass",[3]; [18],95
same,"Plant response rating, Windgrass",[3]; [19],95
same,"Plant response rating, Windgrass",[3]; [20],95
same,"Plant response rating, Windgrass",[3]; [21],95
same,"Plant response rating, Windgrass",[3]; [22],100
same,"Plant response rating, Windgrass",[3]; [23],100
same,"Plant response rating, Windgrass",[3]; [24],100
same,"Plant response rating, Windgrass",[3]; [25],100
same,"Plant response rating, Canarygrass",[4]; [18],65
same,"Plant response rating, Canarygrass",[4]; [19],100
same,"Plant response rating, Canarygrass",[4]; [20],100
same,"Plant response rating, Canarygrass",[4]; [21],100
same,"Plant response rating, Canarygrass",[4]; [22],15
same,"Plant response rating, Canarygrass",[4]; [23],75
same,"Plant response rating, Canarygrass",[4]; [24],98
same,"Plant response rating, Canarygrass",[4]; [25],100
same,"Plant response rating, Bromegrass, Downy",[5]; [18],50
same,"Plant response rating, Bromegrass, Downy",[5]; [19],80
same,"Plant response rating, Bromegrass, Downy",[5]; [20],98
same,"Plant response rating, Bromegrass, Downy",[5]; [21],98
same,"Plant response rating, Bromegrass, Downy",[5]; [22],35
same,"Plant response rating, Bromegrass, Downy",[5]; [23],65
same,"Plant response rating, Bromegrass, Downy",[5]; [24],70
same,"Plant response rating, Bromegrass, Downy",[5]; [25],100
same,"Plant response rating, Ryegrass, Italian",[6]; [18],98
same,"Plant response rating, Ryegrass, Italian",[6]; [19],98
same,"Plant response rating, Ryegrass, Italian",[6]; [20],100
same,"Plant response rating, Ryegrass, Italian",[6]; [21],100
same,"Plant response rating, Ryegrass, Italian",[6]; [22],85
same,"Plant response rating, Ryegrass, Italian",[6]; [23],98
same,"Plant response rating, Ryegrass, Italian",[6]; [24],100
same,"Plant response rating, Ryegrass, Italian",[6]; [25],100
same,"Plant response rating, Wheat, Winter",[7]; [18],90
same,"Plant response rating, Wheat, Winter",[7]; [19],100
same,"Plant response rating, Wheat, Winter",[7]; [20],100
same,"Plant response rating, Wheat, Winter",[7]; [21],100
same,"Plant response rating, Wheat, Winter",[7]; [22],20
same,"Plant response rating, Wheat, Winter",[7]; [23],40
same,"Plant response rating, Wheat, Winter",[7]; [24],100
same,"Plant response rating, Wheat, Winter",[7]; [25],100
same,"Plant response rating, Bluegrass",[8]; [18],0
same,"Plant response rating, Bluegrass",[8]; [19],15
same,"Plant response rating, Bluegrass",[8]; [20],15
same,"Plant response rating, Bluegrass",[8]; [21],20
same,"Plant response rating, Bluegrass",[8]; [22],0
same,"Plant response rating, Bluegrass",[8]; [23],20
same,"Plant response rating, Bluegrass",[8]; [25],30
same,"Plant response rating, Mustard, Wild",[9]; [18],0
same,"Plant response rating, Mustard, Wild",[9]; [19],25
same,"Plant response rating, Mustard, Wild",[9]; [20],25
same,"Plant response rating, Mustard, Wild",[9]; [21],40
same,"Plant response rating, Mustard, Wild",[9]; [22],0
same,"Plant response rating, Mustard, Wild",[9]; [23],0
same,"Plant response rating, Mustard, Wild",[9]; [24],0
same,"Plant response rating, Mustard, Wild",[9]; [25],0
same,"Plant response rating, Barley, Spring",[10]; [18],80
same,"Plant response rating, Barley, Spring",[10]; [19],95
same,"Plant response rating, Barley, Spring",[10]; [20],95
same,"Plant response rating, Barley, Spring",[10]; [21],98
same,"Plant response rating, Barley, Spring",[10]; [22],20
same,"Plant response rating, Barley, Spring",[10]; [23],30
same,"Plant response rating, Barley, Spring",[10]; [24],70
same,"Plant response rating, Barley, Spring",[10]; [25],100
same,"Plant response rating, Blackgrass",[11]; [18],100
same,"Plant response rating, Blackgrass",[11]; [19],100
same,"Plant response rating, Blackgrass",[11]; [20],100
same,"Plant response rating, Blackgrass",[11]; [21],100
same,"Plant response rating, Blackgrass",[11]; [22],85
same,"Plant response rating, Blackgrass",[11]; [23],90
same,"Plant response rating, Blackgrass",[11]; [24],90
same,"Plant response rating, Blackgrass",[11]; [25],100
same,"Plant response rating, Foxtail, Green",[12]; [18],95
same,"Plant response rating, Foxtail, Green",[12]; [19],98
same,"Plant response rating, Foxtail, Green",[12]; [20],100
same,"Plant response rating, Foxtail, Green",[12]; [21],100
same,"Plant response rating, Foxtail, Green",[12]; [22],100
same,"Plant response rating, Foxtail, Green",[12]; [23],100
same,"Plant response rating, Foxtail, Green",[12]; [24],100
same,"Plant response rating, Foxtail, Green",[12]; [25],100
same,"Plant response rating, Oat, Wild",[13]; [18],100
same,"Plant response rating, Oat, Wild",[13]; [19],100
same,"Plant response rating, Oat, Wild",[13]; [20],100
same,"Plant response rating, Oat, Wild",[13]; [21],100
same,"Plant response rating, Oat, Wild",[13]; [22],98
same,"Plant response rating, Oat, Wild",[13]; [23],98
same,"Plant response rating, Oat, Wild",[13]; [24],98
same,"Plant response rating, Oat, Wild",[13]; [25],100
same,"Plant response rating, Pigweed",[14]; [18],0
same,"Plant response rating, Pigweed",[14]; [19],10
same,"Plant response rating, Pigweed",[14]; [20],10
same,"Plant response rating, Pigweed",[14]; [21],20
same,"Plant response rating, Pigweed",[14]; [22],0
same,"Plant response rating, Pigweed",[14]; [23],0
same,"Plant response rating, Pigweed",[14]; [24],0
same,"Plant response rating, Pigweed",[14]; [25],15
same,pest or weed control at 62 g/ha,[15]; [26],0%
same,pest or weed control at 125 g/ha,[15]; [27],0%
same,pest or weed control at 250 g/ha,[15]; [28],40%
same,pest or weed control at 31 g/ha,[15]; [29],0%
same,plant injury at 62 g/ha,[16]; [26],30%
same,plant injury at 125 g/ha,[16]; [27],60%
same,plant injury at 250 g/ha,[16]; [28],70%
same,plant injury at 31 g/ha,[16]; [29],0%
same,pest or weed control at 62 g/ha,[17]; [26],30%
same,pest or weed control at 125 g/ha,[17]; [27],40%
same,pest or weed control at 250 g/ha,[17]; [28],40%
same,pest or weed control at 31 g/ha,[17]; [29],30%
